The text below walks through data of US20260053767A1, “Hepatoprotective Compositions And Methods” (Jemyll, Ltd., priority 2022, published 2026).

The structures appear in SMILES notation.

In one assay the test system is PGC-1α. Put plainly: PGC-1α in endothelial cells. It is filed as cell-based. The note with it: EOMA endothelial cells. An excerpt:
To that end, the inventors used endothelial cells (EOMA cells) and liver cells (AML-12 cells) in vitro and quantified various markers in response to exposure of the cells to environmental challenge in the presence and absence of DDA at low concentrations. Unless indicated otherwise, the DDA concentration in the in vitro experiments was 5 mcg per microliter. More specifically, the inventors measured p-H2AX protein levels as a marker for DNA damage, PGC-1α protein levels as a marker for mitochondrial biogenesis, NAMPT enzyme levels as a marker for potential for NAD+ production, and total antioxidant capacity as a marker of cellular health. In addition, the inventors also measured global SIRT activity as a gauge of activity for all SIRT enzymes, and in particular SIRT1 enzyme levels as markers for autophagy and various beneficial processes associated with a caloric restricted diet, and SIRT3 levels as markers for mitochondrial function and longevity.
In yet a further series of experiments, the inventors also sought to confirm whether or not DDDA would have a modulatory effect in endothelial cells using the same markers and experimental conditions as noted above.
On the other hand, where endothelial cells were exposed to DDDA, there was a significant difference in NAMPT enzyme levels as is exemplarily depicted in FIG. 15.

For another assay, the system named is rat primary HSCs. As to the kind of experiment: HSCs apoptosis by flow cytometry using propidium iodide staining. It is filed as cell-based. As to conditions: 1% (w/vol). As to the method:
A 10% (w/v) FFA-free BSA (Sigma) solution was prepared in ddH2O and maintained at 55° C. in a water bath. 10 mM FFA/1% BSA solution was obtained by complexing the appropriate amount of palmitate stock solution to 10% BSA at 55° C. for another 30 min. The above solution was then cooled to 25° C., filter sterilized and stored at −20° C. until use. Primary hepatocytes were grown in DMEM supplemented with palmitate (0.4 mM). After 24 h. CM was clarified by centrifugation at 6000 g to remove cell debris, sterile filtered with a 0.45 μm pore size membrane filter and stored in aliquots at −20° C. until use.
Hepatic Stellate cells: Primary hepatic stellate cells were isolated from Wistar rats as described previously (7). […] HSCs activation was assessed by flow cytometry by evaluating alpha-smooth muscle Actin (α-SMA) and Collagen type I alpha 1 (COLIA1) protein expression. α-SMA and COLIA1 antibodies were obtained from Thermo Fisher scientific (Waltham, MA). Flow cytometric analysis was conducted with CytoFlex (Beckman Coulter, Brea, CA) and data analyzed with Kaluza software (Beckman Coulter, Brea, CA). […]
Subsequently, protein expression of two established markers of HSCs activation, namely collagen type 1 (COLA1A) and alpha-smooth muscle actin (αSMA), was determined by flow cytometry analysis. […] Next, the inventors analyzed the effect of DODA on HSCs apoptosis. […]

With `O=C(O)CCCCCCCCCCC(=O)O` [DDDA, dodecanedioic acid], in the assay with PGC-1α, the PGC-1α entry is recorded as “did not show a statistically significant difference”. In addition, the HSCs apoptosis entry in the assay on rat primary HSCs (CM from palmitate-treated hepatocytes, propidium iodide staining) was “induces HSCs apoptosis”. Moreover, the “cell death (propidium iodide staining, flow cytometry)” value in the assay on rat primary HSCs (rat primary HSCs, CM from steatotic hepatocytes, without compound 8.39%) is given as 16.16%.
